Assays:
Settings in all cases: Compound concentration 1000.0 nM
[1] = target: Receptor tyrosine-protein kinase erbB-2 (Homo sapiens) (UniProt P04626)
[2] = target: Casein kinase I isoform gamma-2 (Homo sapiens) (UniProt P78368)
[3] = target: T1, Tyrosine-protein kinase TXK (Homo sapiens) (UniProt P42681)
T1 sequence (whole entry): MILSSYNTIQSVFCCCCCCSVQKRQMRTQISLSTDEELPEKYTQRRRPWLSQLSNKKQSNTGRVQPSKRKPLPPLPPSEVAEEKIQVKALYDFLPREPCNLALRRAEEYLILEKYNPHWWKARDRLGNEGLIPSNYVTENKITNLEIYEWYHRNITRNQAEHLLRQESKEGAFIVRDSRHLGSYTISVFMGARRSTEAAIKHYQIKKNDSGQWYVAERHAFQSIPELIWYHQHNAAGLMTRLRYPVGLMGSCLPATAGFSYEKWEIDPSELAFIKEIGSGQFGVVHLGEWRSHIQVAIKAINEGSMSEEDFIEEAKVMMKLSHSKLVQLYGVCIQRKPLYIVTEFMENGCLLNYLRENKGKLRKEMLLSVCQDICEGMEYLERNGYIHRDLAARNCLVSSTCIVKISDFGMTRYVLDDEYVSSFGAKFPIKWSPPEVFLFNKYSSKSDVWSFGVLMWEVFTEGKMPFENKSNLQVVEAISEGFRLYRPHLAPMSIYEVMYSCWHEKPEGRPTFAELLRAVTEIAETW

[4] = target: Glycogen synthase kinase-3 alpha (Homo sapiens) (UniProt P49840)
[5] = target: Transient receptor potential cation channel subfamily M member 6 (Homo sapiens) (UniProt Q9BX84)
Sequence of Transient receptor potential cation channel subfamily M member 6 (Homo sapiens) (Q9BX84 whole entry): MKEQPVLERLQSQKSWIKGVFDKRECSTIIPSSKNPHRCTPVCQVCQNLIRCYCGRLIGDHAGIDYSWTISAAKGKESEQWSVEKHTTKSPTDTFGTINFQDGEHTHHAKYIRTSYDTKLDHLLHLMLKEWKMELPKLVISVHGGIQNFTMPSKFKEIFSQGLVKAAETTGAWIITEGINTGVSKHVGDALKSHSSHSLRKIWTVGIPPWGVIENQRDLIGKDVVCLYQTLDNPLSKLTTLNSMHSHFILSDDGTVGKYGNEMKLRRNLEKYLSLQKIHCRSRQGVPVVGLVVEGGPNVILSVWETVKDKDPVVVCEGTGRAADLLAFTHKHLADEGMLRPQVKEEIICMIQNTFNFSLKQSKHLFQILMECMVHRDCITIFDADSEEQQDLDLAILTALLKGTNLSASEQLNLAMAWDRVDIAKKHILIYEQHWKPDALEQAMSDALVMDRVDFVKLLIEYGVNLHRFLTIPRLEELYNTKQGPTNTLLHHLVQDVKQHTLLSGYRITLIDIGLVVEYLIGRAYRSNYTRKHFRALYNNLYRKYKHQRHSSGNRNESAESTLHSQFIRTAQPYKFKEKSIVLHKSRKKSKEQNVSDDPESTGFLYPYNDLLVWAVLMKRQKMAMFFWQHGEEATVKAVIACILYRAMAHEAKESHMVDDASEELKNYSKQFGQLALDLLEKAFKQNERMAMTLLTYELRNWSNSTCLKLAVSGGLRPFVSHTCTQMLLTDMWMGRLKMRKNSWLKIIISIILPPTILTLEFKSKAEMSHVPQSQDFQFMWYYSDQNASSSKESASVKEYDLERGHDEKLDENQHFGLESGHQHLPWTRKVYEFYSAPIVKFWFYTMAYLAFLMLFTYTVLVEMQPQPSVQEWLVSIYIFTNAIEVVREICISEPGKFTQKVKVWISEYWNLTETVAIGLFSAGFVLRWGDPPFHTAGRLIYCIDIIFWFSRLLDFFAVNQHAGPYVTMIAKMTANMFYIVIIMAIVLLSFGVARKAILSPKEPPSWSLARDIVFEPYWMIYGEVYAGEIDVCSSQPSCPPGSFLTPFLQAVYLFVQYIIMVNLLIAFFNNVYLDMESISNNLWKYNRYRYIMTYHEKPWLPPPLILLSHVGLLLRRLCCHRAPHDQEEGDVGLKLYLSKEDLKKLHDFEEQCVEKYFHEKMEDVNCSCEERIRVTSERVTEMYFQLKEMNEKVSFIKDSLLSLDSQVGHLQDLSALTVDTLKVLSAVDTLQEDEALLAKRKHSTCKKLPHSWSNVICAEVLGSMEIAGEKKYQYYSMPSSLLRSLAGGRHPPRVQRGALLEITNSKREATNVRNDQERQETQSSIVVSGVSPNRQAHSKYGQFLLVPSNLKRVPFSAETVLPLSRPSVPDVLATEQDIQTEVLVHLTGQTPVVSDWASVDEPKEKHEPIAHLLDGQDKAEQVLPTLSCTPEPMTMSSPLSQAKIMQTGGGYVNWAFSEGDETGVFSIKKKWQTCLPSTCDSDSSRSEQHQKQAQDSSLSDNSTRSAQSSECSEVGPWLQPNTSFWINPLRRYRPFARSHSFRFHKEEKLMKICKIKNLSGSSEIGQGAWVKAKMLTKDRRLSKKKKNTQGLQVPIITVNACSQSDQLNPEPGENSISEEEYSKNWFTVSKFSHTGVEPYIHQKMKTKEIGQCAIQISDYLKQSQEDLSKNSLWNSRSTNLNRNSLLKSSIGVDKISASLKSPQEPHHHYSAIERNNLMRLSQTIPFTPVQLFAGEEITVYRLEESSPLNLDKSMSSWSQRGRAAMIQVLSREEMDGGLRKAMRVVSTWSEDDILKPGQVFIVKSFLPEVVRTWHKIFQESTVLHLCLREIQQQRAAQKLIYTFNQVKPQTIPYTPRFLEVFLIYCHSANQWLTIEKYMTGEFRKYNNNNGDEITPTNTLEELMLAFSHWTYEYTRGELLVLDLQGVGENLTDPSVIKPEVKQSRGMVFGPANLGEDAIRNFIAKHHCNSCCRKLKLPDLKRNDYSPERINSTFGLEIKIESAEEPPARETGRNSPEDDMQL

[6] = target: Cyclin-dependent kinase 2 (Homo sapiens) (UniProt P24941)
[7] = target: Casein kinase I isoform gamma-1 (Homo sapiens) (UniProt Q9HCP0)
Sequence of Casein kinase I isoform gamma-1 (Homo sapiens) (Q9HCP0 whole entry, looked up, canonical isoform): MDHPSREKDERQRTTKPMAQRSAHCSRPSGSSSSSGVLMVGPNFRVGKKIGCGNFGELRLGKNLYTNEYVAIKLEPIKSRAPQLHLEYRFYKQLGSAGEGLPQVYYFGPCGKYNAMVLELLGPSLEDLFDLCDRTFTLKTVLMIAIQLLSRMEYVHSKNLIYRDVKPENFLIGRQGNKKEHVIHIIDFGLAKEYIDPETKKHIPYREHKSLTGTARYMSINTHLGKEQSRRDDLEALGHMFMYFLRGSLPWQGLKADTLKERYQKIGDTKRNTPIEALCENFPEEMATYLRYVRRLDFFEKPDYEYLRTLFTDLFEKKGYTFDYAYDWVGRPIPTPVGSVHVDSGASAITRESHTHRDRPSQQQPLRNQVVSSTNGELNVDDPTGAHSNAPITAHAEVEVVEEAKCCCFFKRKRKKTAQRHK

[8] = target: Citron Rho-interacting kinase (Homo sapiens) (UniProt O14578)
[9] = target: Dual specificity mitogen-activated protein kinase kinase 2 (Homo sapiens) (UniProt P36507)
[10] = tested on: Epidermal growth factor receptor (Homo sapiens), P00533 [G719C]
[11] = target: Homeodomain-interacting protein kinase 1 (Homo sapiens) (UniProt Q86Z02)
Sequence of Homeodomain-interacting protein kinase 1 (Homo sapiens) (Q86Z02 whole entry, looked up): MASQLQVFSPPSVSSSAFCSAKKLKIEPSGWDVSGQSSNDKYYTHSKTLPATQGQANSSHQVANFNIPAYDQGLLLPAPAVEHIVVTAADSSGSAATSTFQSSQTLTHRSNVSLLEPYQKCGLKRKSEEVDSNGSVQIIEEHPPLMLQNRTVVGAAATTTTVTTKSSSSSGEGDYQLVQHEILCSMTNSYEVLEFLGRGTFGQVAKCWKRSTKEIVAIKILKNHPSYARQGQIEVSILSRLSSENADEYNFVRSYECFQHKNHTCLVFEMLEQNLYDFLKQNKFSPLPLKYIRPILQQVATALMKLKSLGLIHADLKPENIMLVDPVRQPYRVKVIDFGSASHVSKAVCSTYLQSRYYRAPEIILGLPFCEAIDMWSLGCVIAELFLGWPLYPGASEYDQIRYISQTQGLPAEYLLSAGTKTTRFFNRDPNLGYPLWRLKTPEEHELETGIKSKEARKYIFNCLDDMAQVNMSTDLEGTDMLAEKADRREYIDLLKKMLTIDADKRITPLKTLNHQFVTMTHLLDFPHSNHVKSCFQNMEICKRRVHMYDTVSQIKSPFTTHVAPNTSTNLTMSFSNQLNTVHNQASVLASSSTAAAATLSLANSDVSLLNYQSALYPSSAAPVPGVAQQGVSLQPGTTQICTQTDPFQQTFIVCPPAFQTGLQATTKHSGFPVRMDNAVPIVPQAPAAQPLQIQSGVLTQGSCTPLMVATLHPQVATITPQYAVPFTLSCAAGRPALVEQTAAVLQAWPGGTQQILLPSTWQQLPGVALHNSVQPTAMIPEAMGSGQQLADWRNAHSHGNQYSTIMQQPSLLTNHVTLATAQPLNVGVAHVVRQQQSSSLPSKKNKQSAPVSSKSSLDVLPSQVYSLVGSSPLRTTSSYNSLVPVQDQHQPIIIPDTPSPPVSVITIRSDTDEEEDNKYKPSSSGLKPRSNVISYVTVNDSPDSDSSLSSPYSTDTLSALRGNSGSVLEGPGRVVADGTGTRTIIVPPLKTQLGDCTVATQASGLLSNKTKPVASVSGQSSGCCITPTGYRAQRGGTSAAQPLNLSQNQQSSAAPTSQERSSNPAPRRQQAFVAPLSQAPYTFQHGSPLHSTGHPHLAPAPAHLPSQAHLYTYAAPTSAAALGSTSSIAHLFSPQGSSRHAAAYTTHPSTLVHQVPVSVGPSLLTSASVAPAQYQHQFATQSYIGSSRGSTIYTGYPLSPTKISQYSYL

[12] = target: Mitogen-activated protein kinase kinase kinase kinase 3 (Homo sapiens) (UniProt Q8IVH8)
Sequence of Mitogen-activated protein kinase kinase kinase kinase 3 (Homo sapiens) (Q8IVH8 whole entry): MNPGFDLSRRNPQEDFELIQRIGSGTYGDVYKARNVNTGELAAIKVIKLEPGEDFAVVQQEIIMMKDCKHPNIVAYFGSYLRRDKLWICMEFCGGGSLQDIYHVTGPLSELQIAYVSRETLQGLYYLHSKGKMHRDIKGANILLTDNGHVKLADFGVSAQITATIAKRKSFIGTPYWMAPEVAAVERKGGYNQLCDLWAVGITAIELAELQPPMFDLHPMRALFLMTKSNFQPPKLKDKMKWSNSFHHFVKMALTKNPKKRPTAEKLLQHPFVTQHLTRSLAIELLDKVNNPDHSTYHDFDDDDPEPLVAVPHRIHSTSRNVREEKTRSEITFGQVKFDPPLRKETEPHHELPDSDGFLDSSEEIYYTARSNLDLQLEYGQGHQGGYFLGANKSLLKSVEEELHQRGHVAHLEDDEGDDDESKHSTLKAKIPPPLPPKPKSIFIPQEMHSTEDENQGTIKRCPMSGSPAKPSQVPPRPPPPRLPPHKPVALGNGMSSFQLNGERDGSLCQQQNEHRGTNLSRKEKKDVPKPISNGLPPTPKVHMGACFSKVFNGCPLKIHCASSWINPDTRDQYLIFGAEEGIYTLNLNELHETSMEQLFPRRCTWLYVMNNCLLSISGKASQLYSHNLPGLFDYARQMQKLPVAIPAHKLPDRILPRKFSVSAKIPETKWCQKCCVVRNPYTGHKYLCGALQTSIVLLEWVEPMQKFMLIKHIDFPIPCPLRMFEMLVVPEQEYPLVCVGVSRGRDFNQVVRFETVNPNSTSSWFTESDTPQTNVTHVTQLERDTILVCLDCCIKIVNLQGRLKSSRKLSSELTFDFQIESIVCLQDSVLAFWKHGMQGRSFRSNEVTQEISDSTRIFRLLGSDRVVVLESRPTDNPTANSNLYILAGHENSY

[13] = tested on: Receptor-type tyrosine-protein kinase FLT3 (Homo sapiens), P36888 [UNDEFINED MUTATION]
[14] = target: Mitogen-activated protein kinase kinase kinase kinase 1 (Homo sapiens) (UniProt Q92918)
[15] = tested on: Tyrosine-protein kinase ABL1 (Homo sapiens), P00519 [F317L]
[16] = target: T2, Mitogen-activated protein kinase kinase kinase 3 (Homo sapiens) (UniProt Q99759)
T2 sequence (whole entry): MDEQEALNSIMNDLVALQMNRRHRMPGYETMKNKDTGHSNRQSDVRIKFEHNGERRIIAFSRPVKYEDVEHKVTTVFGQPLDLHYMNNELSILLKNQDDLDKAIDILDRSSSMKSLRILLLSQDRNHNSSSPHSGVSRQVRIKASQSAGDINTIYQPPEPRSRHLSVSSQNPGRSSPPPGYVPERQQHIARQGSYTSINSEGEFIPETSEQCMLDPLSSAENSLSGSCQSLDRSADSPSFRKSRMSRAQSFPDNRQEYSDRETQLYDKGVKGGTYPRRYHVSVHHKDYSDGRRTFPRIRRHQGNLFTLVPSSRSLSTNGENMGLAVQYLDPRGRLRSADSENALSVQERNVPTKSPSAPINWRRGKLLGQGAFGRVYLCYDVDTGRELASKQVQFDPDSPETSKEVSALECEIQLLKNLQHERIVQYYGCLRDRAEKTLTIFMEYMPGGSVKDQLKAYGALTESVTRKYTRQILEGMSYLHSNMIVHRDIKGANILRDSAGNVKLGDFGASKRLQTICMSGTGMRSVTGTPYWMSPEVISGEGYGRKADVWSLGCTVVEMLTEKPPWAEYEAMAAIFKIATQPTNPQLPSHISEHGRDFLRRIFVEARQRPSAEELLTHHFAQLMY

Measured: residual activity

Sequence of Casein kinase I isoform gamma-2 (Homo sapiens) (P78368 whole entry, looked up, canonical isoform): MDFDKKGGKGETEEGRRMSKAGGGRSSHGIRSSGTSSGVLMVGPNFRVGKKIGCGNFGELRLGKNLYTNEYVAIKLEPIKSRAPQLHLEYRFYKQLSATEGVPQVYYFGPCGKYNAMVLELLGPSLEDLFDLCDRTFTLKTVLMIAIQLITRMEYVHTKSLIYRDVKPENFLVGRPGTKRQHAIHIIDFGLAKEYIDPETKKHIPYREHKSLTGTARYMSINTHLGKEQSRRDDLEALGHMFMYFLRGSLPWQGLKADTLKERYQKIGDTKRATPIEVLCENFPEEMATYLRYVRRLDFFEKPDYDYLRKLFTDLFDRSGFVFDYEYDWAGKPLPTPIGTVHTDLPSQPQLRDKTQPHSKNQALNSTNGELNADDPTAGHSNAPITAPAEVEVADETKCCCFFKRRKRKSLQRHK

CN(C)C(=O)Cn1cc(-c2nc(C3(c4ccc(-c5cnc(N)nc5)cc4)CC3)no2)cn1 [BI 0153]
inactive: [1] 80% | [2] 82% | [3] 98% | [4] 100% | [5] 86% | [6] 100% | [7] 90% | [8] 86% | [9] 80% | [10] 100% | [11] 63% | [12] 89% | [13] 85% | [14] 81% | [15] 55% | [16] 81%

CN(C)C(=O)Cn1cc(-c2nc([C@@](C)(c3ccc(-c4cnc(N)nc4)cc3)C3CC3)no2)cn1 [BI 665915]
inactive: [1] 100% | [2] 100% | [3] 96% | [4] 100% | [5] 78% | [6] 96% | [7] 100% | [8] 84% | [9] 86% | [10] 85% | [11] 96% | [12] 100% | [13] 100% | [14] 100% | [15] 66% | [16] 86%

Reference: ChEMBL document CHEMBL4507276 (2021)
